Series [1] is described as follows: method code SF, from DOI: 10.1071/sr9810061.
A short description of series [2]: method code SF-AS, from DOI: 10.1248/cpb.36.1393.
Series [3] can be described thus: method code SF-HPLC, from DOI: 10.1002/jps.2600831027, PMID: 7884677. To be noted: pH 2.0.
Test in series [4]: not given
The source holds these as a separate data set.

Series [5] can be described thus: method code SF-HPLC, from DOI: 10.1016/s0021-9673(01)83534-2.
The nature of series [6]: method code SF-AS, from DOI: 10.1016/j.bmc.2011.10.017, PMID: 22094277. To be noted: pH 7.4.
Test in series [7]: not given
The source holds these as a separate data set.

Series [8] can be described thus: method code SF-RC, from DOI: 10.1111/j.2042-7158.1987.tb06949.x, PMID: 2882008. The settings on record: pH 1.0.
Test in series [9]: not given
The source holds these as a separate data set.

Test in series [10]: not given
This is another data set of the same source.

Test in series [11]: not given
This is another data set of the same source.

Series [12] can be described thus: from Bazaco, J.; Coca, C. (1989). Relation between the partition coefficient (Log Pow) and capacity factor (Log k') derived from reversed-phase HPLC of a series of benzaldehyde derivatives. Ciencia e ….
A short description of series [13]: method code SF, from DOI: 10.1002/ps.2780340212. The settings on record: pH 7.0.
Test in series [14]: not given
The source holds these as a separate data set.

A short description of series [15]: method code SF-HPLC, from DOI: 10.1002/ps.2780190203. To be noted: pH 1.0.
A short description of series [16]: method code SF, from DOI: 10.1016/s0969-8051(99)00063-3, PMID: 10628565. To be noted: pH 7.4.
Test in series [17]: not given
The source holds these as a separate data set.

Series [18] is described as follows: method code SF-HPLC, from DOI: 10.1002/jat.2550130210, PMID: 8486911. To be noted: pH 13.0.
The nature of series [19]: method code SF-HPLC, from DOI: 10.1016/s0021-9673(01)81976-2, PMID: 4066822.
Series [20] is described as follows: method code SF-AS, from KuchaÅ™, M.; Rejholec, V.; Miller, V. (1985). Chromatographically determined lipophilicity and intramolecular interactions of bioactive compounds. Pharmacochemistry Library, 8, 321-331. To be noted: pH 3.4.
Test in series [21]: not given
The source holds these as a separate data set.

Test in series [22]: not given
The source holds these as a separate data set.

A short description of series [23]: method code SF, from PMID: 2704. To be noted: pH 1.0.
Test in series [24]: not given
This is another data set of the same source.

Series [25] can be described thus: method code SF-CR, from DOI: 10.1248/cpb.21.2417, PMID: 4779830. The settings on record: pH 6.0.
The nature of series [26]: method code SF-AS, from Holmes, L.; Lough, E. (1976). Effect of Intramolecular Hydrogen Bonding on Partition Coefficients [Technical Note]. Defence Research Establishment Suffield.
The nature of series [27]: from Rich, R. (1990). Partition coefficients of quinones and their relation to biochemical reactivity. In Lenaz, G. (Ed.), Highlights in Ubiquinone Research: Proceedings of the International Symposium, ….
Test in series [28]: not given
This is another data set of the same source.

The nature of series [29]: method code SF-RC, from DOI: 10.1002/ps.2780300102. The settings on record: pH 1.0.
Series [30] can be described thus: method code SF-HPLC, from DOI: 10.1002/jps.2600780218, PMID: 2715940. To be noted: pH 7.4.
Series [31] is described as follows: method code SF-RC, from DOI: 10.1021/jm201482p, PMID: 22339166. The settings on record: pH 6.8.
A short description of series [32]: method code SF-MS, from DOI: 10.1016/j.fluid.2014.01.017. To be noted: pH 7.6.
Test in series [33]: not given
The source holds these as a separate data set.

Test in series [34]: not given
The source holds these as a separate data set.

Series [35] in a line: method code SF-GLC, from DOI: 10.1002/jps.2600600712, PMID: 4398902.

From the SangsterLogP compilation come the findings set out here.

The term logP denotes a log measure of how a compound divides between an organic and an aqueous phase. In turn, `CCOP(=O)(OCC)SCS(=O)(=O)C(C)(C)C` showed a logP in series [1] of 2.76. The term logD denotes lipophilicity at a set pH, counting ionised and neutral species. In [2] (pH 2.8), `[O-][n+]1ccc(Nc2ccc(O)cc2)c2ccc(Cl)cc21` yielded a logD of 1.23. In the case of `CCOP(=O)(OCC)SCS(=O)C(C)(C)C` (stereo unspecified), the logP in series [1] is 2.66. In series [3], `NC(=O)Cc1ccc(C(=O)O)cc1` displayed a logD of 0.3.

For `O=C1OC(=O)c2c(Cl)c(Cl)c(Cl)c(Cl)c21`, the logP was found to be 3.09. In [4], `N#Cc1ccc(/C=C2\CCCc3ccccc3C2=O)cc1` yielded a logP of 4.27.

Compound `COC(=O)c1cc([N+](=O)[O-])cc([N+](=O)[O-])c1` yielded a logP in series [5] of 1.84. In the case of `CCOC(=O)[C@@]1(C)[C@H](CO)CC=[N+]1[O-]`, the logD in series [6] was -1.3. On to `O=C(O)Cc1ccc(Cl)c(Cl)c1`, for which the logP in series [7] came to 2.9. `CC(=O)Nc1ccc(C(=O)O)c(O)c1` showed a logD in [8] of 1.62.

With `CCCOC(=O)c1ccccc1`, the logP in series [9] came to 3.23. Consider `CC(=O)c1ccccc1`, for which the logP in series [10] was determined as 1.71. For `O=C[C@H](NC(=O)N(CCCl)N=O)[C@@H](O)[C@H](O)[C@H](O)CO`, the logP in series [11] was -1.02. Take `O=C(O)Cn1c(=O)sc2cccc(Cl)c21`: the logP in [7] came to 2.21. Regarding `COc1ccc(C=O)cc1OC`, in [12], the logP was determined as 1.22. Turning to `CC(C)OC(=O)[C@@]1(C)[C@H](CO)CC=[N+]1[O-]`, the logD in series [6] is -0.96.

Take `N#CCc1ccc(C(=O)O)cc1`: the logD in series [3] was 1.18.

In series [13], `CCCCc1c(C)[nH]c(NCC)nc1=O` registered a logD of 2.2. As to `CCc1ccc(C(=O)O)cc1`, the logP in series [14] was found to be 2.85. In series [14], `CC(C)c1ccc(C(=O)O)cc1` showed a logP of 3.24. `O=C(O)COc1ccc(Oc2ccc(Cl)cc2Cl)cc1` showed a logD in [15] of 4.51. Take `CC(=O)OCC1C(OC(C)=O)C(OC(C)=O)C(OC(C)=O)CN1Cc1cccc(I)c1` (stereo unspecified): the logD in series [16] worked out at 3.16. As for `COc1cccc(C=O)c1`, the logP in [12] stood at 1.71. Compound `Oc1ccc(CCOCC2CC2)cc1` yielded a logP in series [17] of 3. In series [17], `COCCc1ccc(O)cc1` yielded a logP of 1.85.

In series [18], `CCCCCC(C)(C)N` returned a logD of 2.19. As for `COC1=C(OC)C(=O)C(OC)=C(OC)C1=O`, the logP in series [19] was 0.41.

`CC(O)(C(=O)O)c1ccccc1` (stereo unspecified) had a logD in series [20] of 0.83. In series [21], `CON=C(C#N)C(=O)N[C@@H](CSC)C(=O)O` returned a logP of 0.52. With `S=C=Nc1cccc2c(N=C=S)cccc12`, the logP in [22] came out at 4.43. As for `COC(=O)COc1ccccc1C`, the logD in series [23] stood at 2.08. Consider `S=C=Nc1ccc(N=C=S)cc1`, for which the logP in series [22] amounted to 2.8. The compound `O=C(O)COc1cc(Cl)cc(Cl)c1` came in with a logD in [15] of 2.84. As to `CN1CC(O)N(c2nnc(C(C)(C)C)s2)C1=O` (stereo unspecified), the logP in series [24] stood at 1.45. In turn, `CN(c1ccccn1)S(=O)(=O)c1ccc(N)cc1` registered a logD in series [25] of 1.3.

Regarding `O=C(O)Cc1cccc(I)c1`, the logD in [8] is 2.49. Consider `Cc1ccccc1OCC(=O)O`, for which the pH-dependent lipophilicity (logD) in [23] was determined as 1.96.

`CCC(=O)c1ccccc1O`: the logP in [26] was 2.54. With `CON(C)C(=O)Nc1ccc(Cl)c(Cl)c1`, in [24], the logP turned out to be 3.

As to `CC1=C(C)C(=O)C=CC1=O`, the logP in [27] was 1.23. Compound `C/C=C/OCC(O)Cn1ccnc1[N+](=O)[O-]` (stereo unspecified) came in with a logP in series [28] of 0.28. `Clc1ccc2c(Cl)ccnc2c1`: the logD in series [2] (pH 7.4) is 3.57. In turn, `O=C(O)Cc1ccc(Cl)cc1` had a logD in series [29] of 2.2. `CC(=O)N(C)c1ccc([N+](=O)[O-])cc1` gave a logD in [30] of 0.91. As for `CON=C(C#N)C(=O)N[C@@H](CS(C)(=O)=O)C(=O)O`, the logP in series [21] was -0.73. Turning to `O=c1[nH]c(=O)n([C@H]2CC(F)[C@@H](CO)O2)cc1I` (stereo partly specified), the logD in [31] is -0.03. `CCCCCC/C=C/C=O` registered a logD in [32] of 3.11. Compound `CC(=O)Nc1ccc(C#N)cc1` showed a logD in series [30] of 1.36. Compound `COc1c(O)ccc(O)c1OC` had a logP in series [27] of 0.61.

In the case of `CCNc1nc(Cl)nc(NC(C)(C)C)n1`, in series [33], the logP came to 3.06. `O=C(O)CNC(=O)c1ccccc1I` displayed a lipophilicity (logP) in series [34] of 1.08. Regarding `CS(=O)(=O)c1cccc(NC(N)=O)c1`, the logD in series [13] is -0.1. The compound `CN(C)S(=O)(=O)c1ccc(N)cc1` yielded a logD in [25] of 0.67. In series [10], `N#CCc1ccccc1` gave a logP of 1.47. `CCC(=O)c1ccc(O)cc1` registered a logP in [26] of 2.03.

In turn, `O=[N+]([O-])c1ccc(Oc2c(Cl)cc(Cl)cc2Cl)cc1` registered a logP of 4.97.

As for `CCOCC(O)Cn1ccnc1[N+](=O)[O-]` (stereo unspecified), the logP in series [28] was -0.07. With `CC(C)(C)c1cc(C(C)(C)C)c2c(c1F)CO[P@@](=O)(OC[C@H]1O[C@@H](n3cc(I)c(=O)[nH]c3=O)C[C@@H]1O)O2`, the logD in [31] came out at 2.23. On to `O=C(O)CCCC(=O)c1ccccc1`, for which the logD in [20] was 1.49.

In [5], `CC(C)=NNc1ccc([N+](=O)[O-])cc1[N+](=O)[O-]` showed a log partition coefficient (logP) of 3.05. In series [19], `COC1=CC(=O)C(OC)=C(OC)C1=O` registered a logP of 0.22. Take `Cc1ncc(CNC(=O)N(CCCl)N=O)c(N)n1`: the log partition coefficient (logP) in series [11] came to 0.39.

`COc1cccc(C(=O)O)c1OC` came in with a logP in series [9] of 1.94.

As to `OC[C@@H]1[C@@H](O)[C@H](O)[C@@H](O)CN1C/C=C/I`, the logD in series [16] is -0.37.

Regarding `O=C(O)CCc1ccc(I)cc1`, the logP in series [34] is 2.81.

The compound `CCCCC/C=C\C=O` showed a logD in series [32] of 2.38. In the case of `CCCCCCCCN`, the logD in [18] was found to be 3.3. As for `CCCC(C)(COC(N)=O)COC(N)=O`, in series [4], the logP was found to be 1.12. On to `O=C1CCCCCCCN1`, for which the logP in [35] came to 0.67. Consider `CCNc1nc(Cl)nc(N(CC)CC)n1`, for which the logP in series [33] turned out to be 3.07.

`CS(=O)(=O)c1ccc(CC(=O)O)cc1` registered a logD in [29] of 0.06.
